Laboratory results reported in US8282688B2, “Laccase mediators and methods of use” (Danisco US Inc., priority 2006, dated 2012).
“And” between values parts separate entries of the source, which are not always exact repeats. Identical values can stand only once.

What was measured:
[1] = system: Cerrena unicolor Laccase (recombinant laccase D); test: Laccase bleaching of stonewashed denim legs, effect of temperature, Unimac, recombinant laccase D (Example 9); assay type: biochemical; settings: laccase 0.05 g/l/0.4 U/ml, pH 6, 30 minutes
Experimental: (§1) Denim, 12 legs weighing approximately 3 kg, was desized in a Unimac UF 50 washing machine under the following conditions: • Desizing for 15 minutes at 10:1 liquor ratio 50° C. with 0.5 g/l (15 g) of Optisize 160 amylase (Genencor) and 0.5 g/l (15 g) of a non-ionic surfactant (e.g. Rucogen BFA, (Rudolf Chemie) or Ultravon GPN, (Huntsman)) • 2 cold rinses for 5 minutes at 30:1 liquor ratio.
(§2) Following desizing the denim was stonewashed in a Unimac UF 50 washing machine under the following conditions: • Cold rinse for 5 minutes at 10:1 liquor ratio • Stonewashing for 60 minutes at 10:1 liquor ratio 55° C. with 1 kg of pumice stone, citrate buffer (30 g tri-sodium citrate dihydrate and 30 g citric acid monohydrate) and 35 g IndiAge 2XL cellulase (Genencor). • 2 cold rinses for 5 minutes at 30:1 liquor ratio.
(§3) Denim legs were evaluated with a Minolta Chromameter CR 310 in the CIE Lab color space with a D 65 light source. Measurements were done only after laccase treatment. For each denim leg 8 measurements are taken and the result of the 12 legs (96 measurements) was averaged.
Laccase bleaching of stonewashed denim: Denim, 12 legs approximately 3 kg, was desized and stonewashed as described in example 8. After stonewashing a laccase treatment was done in a Unimac UF 50 washing machine according to the following process: • 30 minutes at 10:1 liquor ratio, • pH 6 (21 g monosodium phosphate and 5 g adipic acid, recombinant laccase D) or pH 4.8 (8.6 g monosodium phosphate and 16.8 g of adipic acid, Novoprime Base 268 laccase) • laccase (recombinant laccase D or Novoprime Base 268) • mediator (syringamide (SA) and syringonitrile (SN)) • After laccase treatment the denim use rinsed twice in cold water for 5 minutes at 30:1 liquor ratio.

recombinant laccase D = test: Denim swatch bleaching, laccase and mediator concentration, Launder-O-meter (Example 10); assay type: biochemical, Cerrena unicolor; parameters: key: TCD = √(ΔL²+Δa²+Δb²) in CIE Lab, before vs after treatment; settings: 60° C., pH 6
Experimental: Laccase enzyme, derived from Cerrena unicolor (Example 7, 8570 U/ml, 4 mg protein/ml) was used in the experiments.
The enzyme incubations were done in an ATLAS LP 2 Launder-O-meter at different conditions in relation to pH, temperature, enzyme concentration and mediator concentration.
Reactions were carried out in 500 ml stainless steel reaction vessels containing 100 ml of liquid. To each vessel five (7×7 cm) stonewashed denim swatches (ACG denim style 80270) and 6 steel balls of 6 mm diameter were added. The reactions vessels were closed and entered into the launder-O-meter that was pre-heated to the desired temperature. The incubation was carried out for 30 minutes after which the swatches were washed with ‘running’ tap water, spin dried in an AEG IPX4 centrifuge and dried with an Elna Press Electronic iron at program cotton and evaluated.
The color of the five denim swatches is measured with a Minolta Chromameter CR 310 in the CIE Lab color space with a D 65 light source. Measurements were done before and after laccase treatment and the results of the five swatches were averaged. The total color difference (TCD) is calculated. The total color difference can be calculated with the formula: TCD=√(ΔL)^2+(Δa)^2+(Δb)^2.
The effect of laccase and mediator concentration was evaluated running the experiments in the tables below at pH 6 (50 mM monosodium phosphate buffer pH adjusted with sodium hydroxide 4N solution) and a temperature of 60° C.
The experiments were done with syringamide (SA)- and syringonitrile (SN) mediator.
100 ml buffer was added to a beaker with five swatches, 7×7 cm. The total weight 12 g, (denim:liquor ratio=1:8).
The amounts of syringamide or syringonitrile mediator as indicated in the tables below were added to each beaker as a dilution of a 275 mM SA—or—SN stock solution in 98% methanol. The laccase was added to each beaker as indicated in the tables below, as dilution of a 400 units/ml laccase stock solution. The beakers were closed and processed at 60° C. as described in the example 8. The swatches were evaluated as described in example 8.

C. unicolor laccase = test: Stability of mediators in the presence of C. unicolor laccase, LC/MS of supernatant (Example 6); assay type: physicochemical; settings: for Initial Peak Area / Final Peak Area: LC/MS; for Initial Peak Area: 1 mM standard solution of mediator; for Final Peak Area: supernatant after denim disk bleaching; for Final Peak Area / % Remaining: 2 hours at 50° C.; for % Remaining: supernatant after contact with laccase and denim
Experimental: Aliquots of supernatant were analyzed by LC/MS following the denim disk bleaching protocol described in Example 5 in order to determine the final mediator concentrations in the supernatant following the 2 hour incubation period.
Standard solutions of the mediators were prepared by dilution of the methanolic stock solutions (20 mM) into deionized water, such that the final concentrations were 1 mM respectively for each of the three mediators methyl syringate (MS), 4-cyano-2,6-dimethoxyphenol (SN) and, 4-carboxamido-2,6-dimethoxyphenol (SA). Samples were analyzed using a Thermo Finnegan Quantum TSQ LC/MS system (Thermo Finnegan, San Jose, Calif.) operating in positive electrospray ionization mode. The liquid chromatography conditions were as follows: • Column; Agilent Zorbax SB-Aq, 2.1 mm×100 mm, […] silica • Solvent A; 20 mM Ammonium formate, pH 5.0 • Solvent B; 90% Methanol+10% solvent A • Flow rate; 250 uL/min • Injection volume; 5 uL • Elution program; 70% solvent A from 0 to 1 minute, to 30% A from 3 to 4 minutes, back to 70% A at 4.5 minutes, held at 70% A until 8 minutes overall.
The Mass spectrometry conditions were as follows: • Positive mode electrospray ionization (+ve ESI) in full scan mode, scanning from 175 to 240 Da in 0.5 seconds. • Spray voltage was 4200V, sheath gas flow rate 41 mL/min, aux gas flow rate at 15 mL/min. Tube lens voltage was 109V and capillary temperature was 270° C.

[2] = system: Cerrena unicolor Laccase (recombinant laccase D); test: Laccase bleaching of stonewashed denim legs, laccase dose response, Unimac (Example 11); assay type: biochemical; settings: pH 6, 60° C., 30 minutes
Experimental: as §1, §2, §3
Laccase bleaching of stonewashed denim—Denim, 12 legs weighing approximately 3 kg, was desized and stonewashed as described in Example 8. After stonewashing, a laccase treatment was done according to the following process: 30 minutes at 10:1 liquor ratio and pH 6 (21 g monosodium phosphate and 5 g adipic acid) and 60° C. with laccase and mediator. After laccase treatment the denim use rinsed twice in cold water for 5 minutes at 30:1 liquor ratio.

[3] = laccase 10 μl/l, mediator 0.10 mM
[4] = laccase 10 μl/l, mediator 0.55 mM
[5] = laccase 10 μl/l, mediator 1.00 mM
[6] = laccase 33 μl/l, mediator 0.33 mM
[7] = laccase 33 μl/l, mediator 0.78 mM
[8] = laccase 55 μl/l, mediator 0.10 mM
[9] = laccase 55 μl/l, mediator 0.55 mM
[10] = laccase 55 μl/l, mediator 1.00 mM
[11] = laccase 78 μl/l, mediator 0.33 mM
[12] = laccase 78 μl/l, mediator 0.78 mM
[13] = laccase 100 μl/l, mediator 0.10 mM
[14] = laccase 100 μl/l, mediator 0.55 mM
[15] = laccase 100 μl/l, mediator 1.00 mM

| SMILES | TCD (total color difference) (recombinant laccase D; [3]) | TCD (total color difference) (recombinant laccase D; [4]) | TCD (total color difference) (recombinant laccase D; [5]) | TCD (total color difference) (recombinant laccase D; [6]) | TCD (total color difference) (recombinant laccase D; [7]) | TCD (total color difference) (recombinant laccase D; [8]) | TCD (total color difference) (recombinant laccase D; [9]) | TCD (total color difference) (recombinant laccase D; [10]) | TCD (total color difference) (recombinant laccase D; [11]) | TCD (total color difference) (recombinant laccase D; [12]) | TCD (total color difference) (recombinant laccase D; [13]) | TCD (total color difference) (recombinant laccase D; [14]) | TCD (total color difference) (recombinant laccase D; [15]) | Initial Peak Area (C. unicolor laccase) | Final Peak Area (C. unicolor laccase) | % Remaining (C. unicolor laccase) | also measured |
| --- | --- | --- | --- | --- | --- | --- | --- | --- | --- | --- | --- | --- | --- | --- | --- | --- | --- |
| COc1cc(C#N)cc(OC)c1O [SN, 4-cyano-2,6-dimethoxyphenol] | 2.7 | 3.4 | 3.8 | 4.4 | 5.5 | 3.5 | 6.0 and 6.3 | 7.0 | 5.6 | 7.1 | 4.0 and 4.1 | 7.1 | 7.6 and 8.1 | 35.6 × 10^7 | 35.2 × 10^7 | 98.9% | Bleaching level (CIE L) ([1]; mediator 0.47 mM, 40 ° C.): 35.7; Bleaching level (CIE L) ([1]; mediator 0.47 mM, 60 ° C.): 35.9; Bleaching level (CIE L) ([2]; Syringonitrile 0.39 mM, Cerrena unicolor laccase 0.25 g/l): 37.7; Bleaching level (CIE L) ([2]; Syringonitrile 0.39 mM, Cerrena unicolor laccase 0.4 g/l): 39.5; Bleaching level (CIE L) ([2]; Syringonitrile 0.39 mM, Cerrena unicolor laccase 0.53 g/l): 38.8 |
| COc1cc(C(N)=O)cc(OC)c1O [SA, 4-carboxamido-2,6-dimethoxyphenol] | 2.5 | 3.6 | 3.2 | 4.6 | 5.5 | 3.1 | 5.3 and 5.8 | 6.2 | 4.4 | 5.9 | 3.2 and 2.9 | 5.3 | 5.6 and 6.0 | 122 × 10^7 | 0.94 × 10^7 | 7.8% | Bleaching level (CIE L) ([1]; mediator 0.33 mM, 40 ° C.): 35.6; Bleaching level (CIE L) ([1]; mediator 0.33 mM, 60 ° C.): 35.6; Bleaching level (CIE L) ([2]; Syringamide 0.33 mM, Cerrena unicolor laccase 0.010 g/l): 34.6; Bleaching level (CIE L) ([2]; Syringamide 0.33 mM, Cerrena unicolor laccase 0.05 g/l): 36.2; Bleaching level (CIE L) ([2]; Syringamide 0.33 mM, Cerrena unicolor laccase 0.25 g/l): 36.2 |
